Source: US20240148821A1, “PHARMACEUTICAL USE OF CYCLIC PEPTIDE COMPOUND” (CHUGAI SEIYAKU KABUSHIKI KAISHA, priority 2021, published 2024)
Numbered stars: 1 amine (or outer) side, 2 acyl side, 3 side chain; on linkers, the order of the positions; unused ones are H or OH. Bridge positions count the residues as written; N and C are the ends. Square brackets hold non-standard residues; d marks the D form. Peptide text beside a SMILES is read from it. * marks the point of attachment. hPhe(3,5-F2-4-CF3) = N[C@@H](CCc1cc(F)c(C(F)(F)F)c(F)c1)C(=O)O; hPhe(3-Cl-4-CF3) = N[C@@H](CCc1ccc(C(F)(F)F)c(Cl)c1)C(=O)O; X1 = O=C([C@H](CCc1ccc(OC(F)F)c(F)c1)N[*:1])[*:2]; hPhe(4-CF3) = N[C@@H](CCc1ccc(C(F)(F)F)cc1)C(=O)O; NMePhe(3-Cl) = CN[C@@H](Cc1cccc(Cl)c1)C(=O)O; NMePhe(4-Cl) = CN[C@@H](Cc1ccc(Cl)cc1)C(=O)O; NMedβ3hAla = C[C@H](CC(=O)[*:2])N(C)[*:1]; NMeGly(cPent) = CN[C@H](C(=O)O)C1CCCC1; dβ3hPip = O=C(C[C@H]1CCCCN1[*:1])[*:2]; NMeGly(cBu) = CN[C@H](C(=O)O)C1CCC1; NMeCha = CN[C@@H](CC1CCCCC1)C(=O)O; X4 = C#CC[C@H](CC(=O)[*:2])N[*:1]; Hyp = O=C(O)[C@@H]1C[C@@H](O)CN1; NMeCba = CN[C@@H](CC1CCC1)C(=O)O; NMeF = CN[C@@H](Cc1ccccc1)C(=O)O; NMeI = CC[C@H](C)[C@H](NC)C(=O)O; d(β3hL) = CC(C)C[C@@H](N)CC(=O)O; NMeE = CN[C@@H](CCC(=O)O)C(=O)O; NMeD = CN[C@@H](CC(=O)O)C(=O)O; NMeL = CN[C@@H](CC(C)C)C(=O)O; NMeNle = CCCC[C@H](NC)C(=O)O; NMeV = CN[C@H](C(=O)O)C(C)C; Azetidin(1-yl) = C1CN(*)C1; NMeS = CN[C@@H](CO)C(=O)O; Morpholide = C1CN(*)CCO1; NMeA = CN[C@@H](C)C(=O)O; NMeAib = CNC(C)(C)C(=O)O; Piperidide = C1CCN(*)CC1; Pyrrolidide = C1CCN(*)C1; Ac5c = NC1(C(=O)O)CCCC1; Aze = O=C(O)[C@@H]1CCN1; Sar = CNCC(=O)O; Propyl = CCC*

Molecular target: protein-protein interaction between Kras and SOS1 (biotin-tagged human Kras loaded with GDP, His-tagged human SOS1) (Homo sapiens (Human), UniProt P01116, G12D)
Test: Protein-protein interaction inhibition between Kras and SOS1 (KrasG12D-SOS PPI) using AlphaScreen;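 further: kras produced in E. coli, Ni-coupled donor beads and streptavidin acceptor beads, excitation 680 nm with emission detected at 520–620 nm via singlet oxygen transfer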
Type: biochemical
Details: AlphaScreen; biotin-tagged human Kras loaded with GDP, His-tagged human SOS1; read-out: KRAS G12D-SOS PPI IC50

SMILES	IC50
CCO[C@@H]1C[C@H]2C(=O)NC3(CCCC3)C(=O)N(C)[C@@H](C3CCCC3)C(=O)N(C)[C@H](C)CC(=O)N(C)[C@@H](CC(C)C)C(=O)N[C@@H]([C@@H](C)CC)C(=O)N(C)CC(=O)N(C)CC(=O)N(C)[C@@H](CC3CCCCC3)C(=O)N(C)CC(=O)N[C@@H](CCc3cc(F)c(C(F)(F)F)c(F)c3)C(=O)N2C1 [Compound 74] (cyclo([Ac5c][NMeGly(cPent)][NMedβ3hAla][NMeL]I[Sar][Sar][NMeCha][Sar][hPhe(3,5-F2-4-CF3)][Hyp](Et)))	7.2 nM
CCCC[C@H]1C(=O)N2CC[C@H]2C(=O)N(C)[C@@H](CC2CCCCC2)C(=O)N(C)CC(=O)N[C@@H](CCc2ccc(C(F)(F)F)c(Cl)c2)C(=O)N2CCC[C@H]2C(=O)NC2(CCCC2)C(=O)N(C)[C@@H](C(C)C)C(=O)N(C)[C@H](C(=O)N2CCCCC2)CC(=O)N(C)[C@@H](CC(C)C)C(=O)N[C@@H]([C@@H](C)CC)C(=O)N1C [Compound 1596] ([NMeL]I[NMeNle][Aze][NMeCha][Sar][hPhe(3-Cl-4-CF3)]P[Ac5c][NMeV][NMeD]-Piperidide; lactam N-11)	23 nM
CCCOC[C@H]1C(=O)N(C)CC(=O)N[C@@H](CCc2ccc(C(F)(F)F)c(Cl)c2)C(=O)N2CCC[C@H]2C(=O)NC2(CCCC2)C(=O)N(C)[C@@H](C2CCCC2)C(=O)N(C)[C@H](C)CC(=O)N(C)[C@@H](CC(C)C)C(=O)N[C@@H]([C@@H](C)CC)C(=O)N(C)[C@@H](C)C(=O)N2CC[C@H]2C(=O)N1C [Compound 366] (cyclo([Ac5c][NMeGly(cPent)][NMedβ3hAla][NMeL]I[NMeA][Aze][NMeS](Propyl)[Sar][hPhe(3-Cl-4-CF3)]P))	4 nM
CC[C@H](C)[C@@H]1NC(=O)[C@H](CC(C)C)N(C)C(=O)C[C@@H](C(=O)N2CCOCC2)N(C)C(=O)[C@H](C2CCCC2)N(C)C(=O)C2(CCCC2)NC(=O)[C@@H]2CCCN2C(=O)[C@H](CCc2ccc(C(F)(F)F)c(Cl)c2)NC(=O)CN(C)C(=O)[C@H](CC2CCCCC2)N(C)C(=O)[C@@H]2CCN2C(=O)[C@H](C)NC1=O [Compound 1137] ([NMeL]IA[Aze][NMeCha][Sar][hPhe(3-Cl-4-CF3)]P[Ac5c][NMeGly(cPent)][NMeD]-Morpholide; lactam N-11)	4.6 nM
CC[C@H](C)[C@@H]1NC(=O)[C@H](CC(C)C)N(C)C(=O)C[C@@H](C(=O)N2CCCC2)N(C)C(=O)[C@H](C2CCCC2)N(C)C(=O)C2(CCCC2)NC(=O)[C@@H]2CCCN2C(=O)[C@H](CCc2ccc(C(F)(F)F)c(Cl)c2)NC(=O)CN(C)C(=O)[C@H](C2CCCC2)N(C)C(=O)[C@@H]2CCN2C(=O)[C@H](C)N(C)C1=O [Compound 201] ([NMeL]I[NMeA][Aze][NMeGly(cPent)][Sar][hPhe(3-Cl-4-CF3)]P[Ac5c][NMeGly(cPent)][NMeD]-Pyrrolidide; lactam N-11)	0.58 nM
CC[C@H](C)[C@@H]1NC(=O)[C@H](C(C)C)N(C)C(=O)C[C@@H](CC(C)C)NC(=O)[C@H](CC(C)C)N(C)C(=O)C2(CCCC2)NC(=O)[C@H](CC(C)C)N(C)C(=O)[C@H](CCc2ccc(C(F)(F)F)cc2)NC(=O)CN(C)C(=O)[C@H](Cc2ccc(Cl)cc2)N(C)C(=O)CN(C)C(=O)CN(C)C1=O [Compound 113] (cyclo([Ac5c][NMeL][d(β3hL)][NMeV]I[Sar][Sar][NMePhe(4-Cl)][Sar][hPhe(4-CF3)][NMeL]))	280 nM
CC[C@H](C)[C@@H]1NC(=O)[C@H](C(C)C)N(C)C(=O)C[C@H]2CCCCN2C(=O)[C@H](CC(C)C)N(C)C(=O)C2(CCCC2)NC(=O)[C@H](CC(C)C)N(C)C(=O)[C@H](CCc2ccc(C(F)(F)F)cc2)NC(=O)CN(C)C(=O)[C@H](Cc2ccc(Cl)cc2)N(C)C(=O)CN(C)C(=O)CN(C)C1=O [Compound 189] (cyclo([Ac5c][NMeL][dβ3hPip][NMeV]I[Sar][Sar][NMePhe(4-Cl)][Sar][hPhe(4-CF3)][NMeL]))	110 nM
CC[C@H](C)[C@@H]1NC(=O)[C@H](CC(C)C)N(C)C(=O)C[C@@H](C(=O)N2CCOCC2)N(C)C(=O)[C@H](C2CCCC2)N(C)C(=O)C2(CCCC2)NC(=O)[C@H](CCC(=O)N2CCC2)N(C)C(=O)[C@H](CCc2ccc(C(F)(F)F)c(Cl)c2)NC(=O)CN(C)C(=O)[C@H](CC2CCCCC2)N(C)C(=O)[C@@H]2CCN2C(=O)[C@H](C)N(C)C1=O [Compound 2103] ([NMeL]I[NMeA][Aze][NMeCha][Sar][hPhe(3-Cl-4-CF3)][NMeE](Azetidin(1-yl))[Ac5c][NMeGly(cPent)][NMeD]-Morpholide; lactam N-11)	8.3 nM
CC[C@H](C)[C@@H]1NC(=O)[C@H](C)N(C)C(=O)C[C@@H](C)N(C)C(=O)[C@H](CC2CCC2)N(C)C(=O)C(C)(C)N(C)C(=O)[C@@H]2CCCN2C(=O)[C@H](CCc2ccc(C(F)(F)F)c(Cl)c2)NC(=O)CN(C)C(=O)[C@H](CC2CCCCC2)N(C)C(=O)[C@@H]2CCN2C(=O)[C@H](C)N(C)C1=O [Compound 2152] (cyclo([Aze][NMeCha][Sar][hPhe(3-Cl-4-CF3)]P[NMeAib][NMeCba][NMedβ3hAla][NMeA]I[NMeA]))	71 nM
CC[C@H](C)[C@@H]1NC(=O)[C@H](C)N(C)C(=O)C[C@@H](C(=O)N2CCCCC2)N(C)C(=O)[C@H](C(C)C)N(C)C(=O)C2(CCCC2)NC(=O)[C@H](Cc2cccc(Cl)c2)N(C)C(=O)[C@H](CCc2ccc(C(F)(F)F)c(Cl)c2)NC(=O)CN(C)C(=O)[C@H](CC2CCCCC2)N(C)C(=O)CN(C)C(=O)CN(C)C1=O [Compound 282] ([NMeA]I[Sar][Sar][NMeCha][Sar][hPhe(3-Cl-4-CF3)][NMePhe(3-Cl)][Ac5c][NMeV][NMeD]-Piperidide; lactam N-11)	94 nM
CC[C@H](C)[C@@H]1NC(=O)[C@H](CC(C)C)N(C)C(=O)C[C@@H](C(=O)N2CCCC2)NC(=O)[C@H]([C@@H](C)CC)N(C)C(=O)C2(CCCC2)NC(=O)[C@@H]2CCCN2C(=O)[C@H](CCc2ccc(C(F)(F)F)c(Cl)c2)NC(=O)CN(C)C(=O)[C@H](CC2CCCCC2)N(C)C(=O)[C@@H]2CCN2C(=O)[C@H](C)N(C)C1=O [Compound 453] ([NMeL]I[NMeA][Aze][NMeCha][Sar][hPhe(3-Cl-4-CF3)]P[Ac5c][NMeI]D-Pyrrolidide; lactam N-11)	17 nM
CC[C@H](C)[C@@H]1NC(=O)[C@H](CC(C)C)N(C)C(=O)C[C@@H](C(=O)N2CCCCC2)N(C)C(=O)[C@H](C(C)C)N(C)C(=O)C2(CCCC2)NC(=O)[C@@H]2CCCN2C(=O)[C@H](CCc2ccc(C(F)(F)F)c(Cl)c2)NC(=O)CN(C)C(=O)[C@H](CC2CCCCC2)N(C)C(=O)[C@@H]2CCN2C(=O)[C@H](Cc2ccccc2)N(C)C1=O [Compound 1561] ([NMeL]I[NMeF][Aze][NMeCha][Sar][hPhe(3-Cl-4-CF3)]P[Ac5c][NMeV][NMeD]-Piperidide; lactam N-11)	33 nM
CC[C@H](C)[C@@H]1NC(=O)[C@H](CC2CCCCC2)N(C)C(=O)C[C@@H](C)N(C)C(=O)[C@H](CC(C)C)NC(=O)C(C)(C)N(C)C(=O)[C@H](CC(C)C)NC(=O)[C@H](CCc2ccc(C(F)(F)F)cc2)NC(=O)CN(C)C(=O)[C@H](Cc2ccc(Cl)cc2)N(C)C(=O)CN(C)C(=O)CN(C)C1=O [Compound 595] (cyclo(I[Sar][Sar][NMePhe(4-Cl)][Sar][hPhe(4-CF3)]L[NMeAib]L[NMedβ3hAla][NMeCha]))	290 nM
CC[C@H](C)[C@@H]1NC(=O)[C@H](CC(C)C)N(C)C(=O)C[C@@H](C(=O)N2CCCCC2)N(C)C(=O)[C@H](C2CCCC2)N(C)C(=O)C2(CCCC2)NC(=O)[C@@H]2CCCN2C(=O)[C@H](CCc2ccc(OC(F)F)c(F)c2)NC(=O)CN(C)C(=O)[C@H](CC2CCCCC2)N(C)C(=O)[C@@H]2CCN2C(=O)[C@H](C)N(C)C1=O [Compound 2076] ([NMeL]I[NMeA][Aze][NMeCha][Sar][X1]P[Ac5c][NMeGly(cPent)][NMeD]-Piperidide; lactam N-11 (inferred); C-terminus assumed)	2.5 nM
CC[C@H](C)[C@@H]1NC(=O)[C@H](CC(C)C)N(C)C(=O)C[C@@H](C(=O)N2CCCCC2)N(C)C(=O)[C@H]([C@@H](C)CC)N(C)C(=O)C2(CCCC2)NC(=O)[C@@H]2CCCN2C(=O)[C@H](CCc2ccc(C(F)(F)F)c(Cl)c2)NC(=O)CN(C)C(=O)[C@H](C2CCCC2)N(C)C(=O)[C@@H]2CCN2C(=O)[C@H](C)N(C)C1=O [Compound 807] ([NMeL]I[NMeA][Aze][NMeGly(cPent)][Sar][hPhe(3-Cl-4-CF3)]P[Ac5c][NMeI][NMeD]-Piperidide; lactam N-11)	0.74 nM
CC[C@H](C)[C@@H]1NC(=O)[C@H](C)N(C)C(=O)C[C@@H](C(=O)N2CCCCC2)N(C)C(=O)[C@H](C(C)C)N(C)C(=O)C2(CCCC2)NC(=O)[C@@H]2CCCN2C(=O)[C@H](CCc2ccc(C(F)(F)F)c(Cl)c2)NC(=O)[C@H]2CCCN2C(=O)[C@H](Cc2ccccc2)N(C)C(=O)[C@@H]2CCCN2C(=O)CN(C)C1=O [Compound 1839] ([NMeA]I[Sar]P[NMeF][dP][hPhe(3-Cl-4-CF3)]P[Ac5c][NMeV][NMeD]-Piperidide; lactam N-11)	55 nM
C#CC[C@@H]1CC(=O)N(C)[C@@H](C(C)C)C(=O)N[C@@H]([C@@H](C)CC)C(=O)N(C)CC(=O)N(C)CC(=O)N(C)[C@@H](Cc2ccc(Cl)cc2)C(=O)N(C)CC(=O)N[C@@H](CCc2ccc(C(F)(F)F)cc2)C(=O)N(C)[C@@H](CC(C)C)C(=O)NC2(CCCC2)C(=O)N(C)[C@@H](CC(C)C)C(=O)N1 [Compound 669] (cyclo([Ac5c][NMeL][X4][NMeV]I[Sar][Sar][NMePhe(4-Cl)][Sar][hPhe(4-CF3)][NMeL]))	220 nM
CC[C@H](C)[C@@H]1NC(=O)[C@H](C)N(C)C(=O)C[C@@H](C)N(C)C(=O)[C@H](C2CCC2)N(C)C(=O)C(C)(C)N(C)C(=O)[C@@H]2CCCN2C(=O)[C@H](CCc2ccc(C(F)(F)F)c(Cl)c2)NC(=O)CN(C)C(=O)[C@H](CC2CCCCC2)N(C)C(=O)[C@@H]2CCN2C(=O)[C@H](C)N(C)C1=O [Compound 2157] (cyclo([Aze][NMeCha][Sar][hPhe(3-Cl-4-CF3)]P[NMeAib][NMeGly(cBu)][NMedβ3hAla][NMeA]I[NMeA]))	6.9 nM
